Measurements: patent publication US20150087037A1, “FERMENTATION PROCESS” (LanzaTech New Zealand Limited, priority 2013, published 2015)

Assays:
[1] = tested on: Ketol-acid reductoisomerase IlvC; conditions: reference in the literature; cited from earlier work
[2] = tested on: C. autoethanogenum DSM23693; assay: Addition of other known inhibitor to a fermentation optimized for 2,3-Butanediol production; assay type: cell-based, Clostridium autoethanogenum; conditions: single addition, 15 mM, stable reactor, day 13.2, FIG. 13
Description: Fermentations with C. autoethanogenum DSM23693 were carried out in 1.5 L bioreactors at 37° C. The media was prepared according to Table 1. To achieve anaerobicity the reactor vessel was sparged with nitrogen. Prior to inoculation, the gas was switched to either steel mill gas containing H2 (3%), N2 (30%), CO (47%) and CO2 (20%) or pure gases (50% CO, 18-40% CO2, with the balance N2). The gas flow was initially set at 67 ml/min/L, increasing to 200 ml/min during mid-exponential phase, while the agitation was increased from 200 rpm to 800. Na2S was dosed into the bioreactor at 0.25 ml/hr. Once the OD600 reached 1.5, the bioreactor was switched to a continuous mode at a dilution rate of 2.0-1.6 d-l and a bacterial dilution rate of 0.9-0.6 d-l. During continuous mode gas and agitation were adjusted to 900-950 rpm and 800-900 ml/min. Na2S was increased to 1.0 ml/hr.
Liquid culture samples were taken at differing intervals over the duration of the fermentation. These samples were used to establish the optical density at 600 nm (spectrophotometer) and the level of substrates and products (high performance liquid chromatography—HPLC). HPLC was routinely used to quantify the level of acetate, ethanol and 2,3-butanediol. The input and output gas compositions were analysed using a gas chromatographer (GC), allowing measurement of CO and H2 consumption and CO2 production by the culture. […]

In the case of `CCC(C)(O)C(=O)O` (stereo not drawn) [2-hydroxy-2-methylbutyric acid], the “inhibition of ilvC” value [1] is listed as “known inhibitor”, the “ethanol:2,3-BDO ratio” value [2] is listed as “drop” and the “production of 2,3-Butanediol” value [2] is listed as “increase”.
